Measured values from patent publication US20190282600A1, “COMBINATION THERAPIES TARGETING TERT DEPENDENCY FOR CANCER THERAPY” (The Wistar Institute of Anatomy and Biology, priority 2018, published 2019).

How the values were obtained:
[1] = test system: non-transformed primary human fibroblasts; experiment: Cell viability, Alamar Blue assay; format: cell-based; settings: telomerase negative cells, 7 days
Protocol: (§1) FIGS. 2a to 2c show NRAS^mut melanoma cells (FIG. 2a), BRAF-V600E/NRAS mutant cells derived from melanoma patients resistant to BRAF/MEK inhibitors (FIG. 2b), or non-transformed melanocytes and fibroblasts (FIG. 2c) were treated with 6-thio-dG for 7 days. Cell viability was measured by Alamar Blue assay and calculated relative to DMSO-treated cells. […] Cell death was assessed by PSVUe staining. Percent of apoptotic cells is shown. […] Mean TRF length expressed as kilobase pairs is indicated at the bottom. […] FIG. 2g provides a bar graph showing that DNA damage was assessed by γH2AX staining. Data represent average from three independent experiments ±SEM. *p<0.05; **p<0.01; ***p<0.005 in unpaired Student's t-test. […] Tumor volume was measured and average tumor volume (n=4) ±SEM was plotted vs. time.
(§2) Cells were seeded in 96-well plates and treated with drugs. After 6 days, cell viability was assessed following 6h incubation with […] Alamar Blue (ThermoFisherScientific, Philadelphia, Pa.) by measuring fluorescence using an EnVision Xcite Multilabel plate reader (Perkin Elmer, Waltham, Mass.). Cell death was determined by flow cytometry using PSVue-643 (Molecular Targeting Technologies) or Annexin V (640919, Biolegend, San Diego, Calif.) and Propidium Iodide (Sigma) staining. Samples were analyzed using a BD LSRII flow cytometer (BD Biosciences, San Jose, Calif.).

[2] = test system: non-transformed primary human melanocytes; experiment: Cell viability, Alamar Blue assay; format: cell-based; settings: telomerase negative cells, 7 days
Protocol: as §1, §2

[3] = test system: NRAS mutant melanoma cells; experiment: Cell death by flow cytometry (PSVue or Annexin V/PI); format: cell-based, Human
Protocol: (§3) FIGS. 2a to 2c show NRAS^mut melanoma cells (FIG. 2a), BRAF-V600E/NRAS mutant cells derived from melanoma patients resistant to BRAF/MEK inhibitors (FIG. 2b), or non-transformed melanocytes and fibroblasts (FIG. 2c) were treated with 6-thio-dG for 7 days. Cell viability was measured by Alamar Blue assay and calculated relative to DMSO-treated cells. […] Cell death was assessed by PSVUe staining. Percent of apoptotic cells is shown. […] Mean TRF length expressed as kilobase pairs is indicated at the bottom. […] FIG. 2g provides a bar graph showing that DNA damage was assessed by γH2AX staining. Data represent average from three independent experiments ±SEM. *p<0.05; **p<0.01; ***p<0.005 in unpaired Student's t-test. As presented in FIG. 2h, mice bearing established WM3000 or M93-047 NRAS^mut tumors were treated with vehicle control or 6-thio-dG (2.5 mg/kg i.p; q.d). Tumor volume was measured and average tumor volume (n=4) ±SEM was plotted vs. time.
FIGS. 3a to 3g provides graphs showing that telomere dysfunction enhances oxidative stress leading to upregulation of an antioxidant program. […] Mitochondrial superoxide production was measured by MitoSox Red fluorescence (FIGS. 3c, and 3d) and expressed as fluorescence relative to vector or DMSO controls. […] FIG. 3f provides a bar graph showing that SOD2 was silenced using shRNA. Transduced M93-047 cells were treated with DMSO or 1 μM of 6-thio-dG and cell death was assessed by Annexin V/PI straining. As presented in FIG. 3g, M93-047 cells were transduced with a SOD2 lentiviral construct or empty vector control (pLX304). Transduced cells were treated with increasing doses (1, 2.5 and 5 μM) of 6-thio-dG for 7 days and cell death was assessed. Data represent average from three independent experiments ±SEM. *p<0.05; **p<0.01; ***p<0.005 in unpaired Student's t-test.
FIGS. 4a to 4e provides bar graphs showing that induction of telomere and mitochondrial dysfunction triggers cell death in NRAS mutant melanoma. […] Cell death was assessed by Annexin V and PI staining. […] Cells were stained with Annexin V and PI and percent cell death was determined by flow cytometry. […] P values were calculated using unpaired Student's t-test; * p<0.05; *** p<0.005.
As presented in FIG. 16a, SOD2 was silenced using shRNA. Transduced WM3000 cells were treated with DMSO or 1 μM of 6-thio-dG and cell death was assessed by Annexin V/PI straining. […] Transduced cells were treated with increasing doses (1, 2.5 and 5 μM) of 6-thio-dG for 10 days and cell death was assessed. […]
In FIG. 17a, NRAS^mut melanoma cells were treated with 6-thio-dG (1 μM) for 7 days total. […] Percent cell death was determined by flow cytometry following staining of cells with Annexin V and Propidium iodide. […]

[4] = test system: NRAS mutant melanoma cells; experiment: Telomere length assay (TRF Southern blotting); format: cell-based, Human; settings: 1 μM 6-thio-dG for 14 days
Protocol: as §3
Genomic DNA was prepared using Wizard genomic DNA purification kit (Promega) following manufacturer's instruction. […] The images were analyzed with Phosphorimager, visualized by Typhoon 9410 Imager (GE Healthcare), and processed with ImageQuant 5.2 software (Molecular Dynamics).

[5] = mice; cited from earlier work

Nc1nc2c(ncn2[C@H]2C[C@H](O)[C@@H](CO)O2)c(=S)[nH]1 [6-thio-dG, 6-thio-2′-deoxyguanosine]
cell viability [1]: did not significantly affect | cell viability [2]: did not significantly affect | cell death (PSVue staining) ([3]; 1 or 5 μM 6-thio-dG for 7 or 14 days): led to cell death after 7-14 days | apoptosis / cell death ([3]; SOD2 overexpression, 1, 2.5 and 5 μM 6-thio-dG for 7 or 10 days, M93-047, WM3000): attenuated the apoptosis-inducing effects | apoptosis / cell death (Annexin V/PI) ([3]; SOD2 silenced by shRNA, 1 μM 6-thio-dG, M93-047, WM3000): enhanced the ability of 6-Thio-dG to induce apoptosis | telomere length (mean TRF) [4]: without evidence for significant telomere shortening | effect on alanine aminotransferase (ALT) [5]: no significant effects | effect on aspartate aminotransferase (AST) [5]: no significant effects | effect on creatinine levels [5]: no significant effects | effect on red blood cells [5]: no significant effects | effect on white blood cells [5]: no significant effects
